Reference: US8344007B2, “Water-soluble polymer-based cantharimides as potentially selective anti-tumor agents” (priority 2009, dated 2013)
Converted amounts (≈) assume the structure as drawn.

Key:
[1] = Solubility; assay type: physicochemical
[2] = test system: Hep3B; test: MTS assay, Hep3B cell growth; assay type: cell-based; conditions: Homo sapiens, 48 hours of incubation
Source text: (§1) An acute myelogenous leukaemia (AML) cell line (KG1a) and a hepatocellular carcinoma (HCC) cell line (Hep3B) may be obtained from American Type of Culture Collection (ATCC). The AML cell line may be maintained in RPMI 1640 (JRH Biosciences) supplemented with 10% of heat inactivated fetal bovine serum (Hyclone), together with antibiotics including penicillin and streptomycin. The Hep3B HCC cell line may be maintained in DMEM with 10% of heat inactivated fetal bovine serum (Hyclone), together with antibiotics including penicillin and streptomycin. Cells may be allowed to grow in a humidified cell culture incubator kept at 5% carbon dioxide.
(§2) The effect of the synthesized cantharimides on the growth of the cell lines described above was investigated in vitro using a standard MTS ([3-(4,5-dimethylthiazol-2-yl)-5-(3-carboxymethoxyphen-yl)-2-(4-sulfophenyl)-2H-tetrazolium]) assay. Changes in the cellular viability of cell that include Hep3B and SKHep-1 with cantharidin analogues were monitored using the MTS activity assay. In particular, 1×10^4 hepatoma carcinoma cells (SK-Hep-1) were seeded at day 0. For the MTS assay, the medium was changed after 24 hours, and various compounds were then added at different concentrations. For bone marrow cells, compounds were added at the same day as the seeding. After 48 hours of incubation, the medium was removed, and MTS/PMS solution was added. The added medium was incubated for exactly 30 minutes. Subsequently, optical absorbance was determined at 490 nm using an optical absorbance detector (available from Promega).
More than 30 cantharimides were screened for their effects on cell proliferation and potential cytotoxicity in the two cell lines of Hep3B and SKHep-1. The activities of cantharimide were monitored in the presence of dicantharidic (a commercially available cantharidin-mimic) as a reference control.

[3] = test system: leukemia cell line KG1a; test: MTS assay, leukemia cell line KG1a; assay type: cell-based; conditions: for IC50: Homo sapiens, KG-1a, concentration necessary for 50% of MTS reduction ability vs control, read-out: MTS50 activity
Source text: as §1, §2
The cytotoxic activity of cantharimide of formula (3) using a leukemia cell line KG1a was investigated by means of a MTS assay. The MTS50 activity was measured as the concentration necessary for 50% of MTS reduction ability by the chemical treated cell as compared with the control. […] On the other hand, cantharimide gave a value of about 5 µg/ml for MTS50 activity against the same cancer cell line.

[4] = test system: non-malignant haematological disorder bone marrow; test: Morphology assay, bone marrow; assay type: cell-based, human; conditions: 48 hours incubation
Source text: (§3) Non-malignant hematological disorder bone marrow cells may be collected by a bone marrow aspirate method from consented patients from clinical wards of Prince of Wales Hospital (Hong Kong, China), according to the regulation of the Hospital. Immediately after collection, mononuclear cells may be enriched by Ficoll Plaque (available from General Electricity) gradient centrifugation. Cells may be washed twice by phosphate buffered saline and resuspended in complete medium. Viable cell percentage may then be estimated by trypan blue exclusion assay and counted using a haemacytometer.
The toxicity on non-malignant haematological bone marrow sample was tested to evaluate the side effects of cantharidin, which included bone marrow suppression, and gastrointestinal and urinary tract toxicity.
(§4) The morphological effect of cytotoxic action of cantharidic acid and cantharimide on leukemia cells are depicted in FIGS. 1A to 1F. The untreated non-malignant haematological disorder bone marrow and KG1a AML cell lines are depicted in FIGS. 1A and 1D, respectively. The non-malignant haematological disorder bone marrow and KG1a AML cell lines treated with 5 µg/mL of dicantharidic acid are depicted in FIGS. 1B and 1E, respectively. The non-malignant haematological disorder bone marrow and KG1a AML cell lines treated with 5 µg/mL of cantharimide are depicted in FIGS. 1C and 1F, respectively.

[5] = test system: non-malignant haematological disorder bone marrow cells; test: MTS assay, primary culture of bone marrow cells; assay type: cell-based, human; parameters: toxicity to bone marrow cells: dose or concentration left out as unconfirmed
Source text: as §3
as §2, with “After 48 hours of incubation, the medium was removed, and MTS/PMS solution was added. The added medium was incubated for exactly 30 minutes.” left out

[6] = test system: KG1a AML cell line; test: Morphology assay, KG1a AML cell line; assay type: cell-based; parameters: dose or concentration left out as unconfirmed; conditions: 48 hours incubation
Source text: as §1, §4

Row | SMILES | Solubility in water [1] | IC50 [2] [µg/mL] | also measured
1 | C[C@@]12C(=O)N(c3nc4ccc(C(F)(F)F)cc4s3)C(=O)[C@]1(C)[C@H]1CC[C@@H]2O1 [Entry 5] | Fair | ~5 (≈ 12.6 µM) | –
2 | C[C@@]12C(=O)N(c3nc4ccc(C(=O)O)cc4s3)C(=O)[C@]1(C)[C@H]1CC[C@@H]2O1 [Entry 7] | Good | ~5 (≈ 13.4 µM) | solubility ([1]; DMSO, organic solvent or mixture): 250 mg/mL (≈ 671000 µM); IC50 [3]: ~5 µg/mL (≈ 13.4 µM); morphological effect on bone marrow cells [4]: colony formation remained unchanged; cytotoxic activity to normal bone marrow cells [5]: lack of cytotoxic activity; morphological effect on leukemia cells [6]: induced loss of colony formation potential and cell shrinkage
3 | C[C@@]12C(=O)N(c3nc4ccc(OC(F)(F)F)cc4s3)C(=O)[C@]1(C)[C@H]1CC[C@@H]2O1 [Entry 4] | Fair | ~10 (≈ 24.2 µM) | –
4 | Cc1ccc2nc(N3C(=O)[C@@]4(C)[C@@H]5CC[C@@H](O5)[C@@]4(C)C3=O)sc2c1 [Entry 2] | Poor | ~20 (≈ 58.4 µM) | –
5 | COc1ccc2nc(N3C(=O)[C@@]4(C)[C@@H]5CC[C@@H](O5)[C@@]4(C)C3=O)sc2c1 [Entry 3] | Poor | ~5 (≈ 14 µM) | –
6 | COC(=O)c1ccc2nc(N3C(=O)[C@@]4(C)[C@@H]5CC[C@@H](O5)[C@@]4(C)C3=O)sc2c1 [Entry 8] | Good | – | –
7 | CC1(C(=O)O)C2CCC(O2)C1(C)C(=O)O (stereo not shown) [dicantharidic acid, reference compound] | – | – | IC50 [3]: ~0.5 µg/mL (≈ 2.33 µM); activity to the cancer cell line compared to cantharimide ([3]; MTS50): 10 fold; morphological effect on bone marrow cells [4]: induced a similar loss; toxicity to bone marrow cells ([5]; concentration down to 0.15625, 48 hours of incubation): extremely toxic; morphological effect on leukemia cells [6]: induced loss of colony formation potential and cell shrinkage
8 | C[C@@]12C(=O)N(c3nc4ccc(F)cc4s3)C(=O)[C@]1(C)[C@H]1CC[C@@H]2O1 [Entry 6] | Poor | ~5 (≈ 14.4 µM) | –
9 | CCCCOC(=O)c1ccc2nc(N3C(=O)[C@@]4(C)[C@@H]5CC[C@@H](O5)[C@@]4(C)C3=O)sc2c1 [Entry 9] | Good | – | –
10 | C[C@@]12C(=O)N(c3nc4ccccc4s3)C(=O)[C@]1(C)[C@H]1CC[C@@H]2O1 [Entry 1] | Poor | ~6 (≈ 18.3 µM) | –
11 | C[C@]1(C(=O)O)[C@@H]2CC[C@@H](O2)[C@@]1(C)C(=O)O [Entry 11, reference compound] | Excellent | ~0.25 (≈ 1.17 µM) | –
